Holding throughout (assay type): in vivo, human
The subject of assay [1] is cancer patients. Description: Composite suicidal ideation (SI) score (BDI-II item #9 + BSI item #9, T-scores), crossover trial with psychotherapy. Particulars: for Composite SI within-subject effect size relative to baseline, Cohen's d: psilocybin-1st group. The procedure: (§1) 29 participants were randomly assigned to one of two groups: psilocybin (0.3 mg/kg) on the first medication session followed by niacin (250 mg) on the second session (i.e. psilocybin-first group), or niacin (250 mg) on the first medication session followed by psilocybin (0.3 mg/kg) on the second session (i.e. niacin-first group). Psilocybin and niacin were administered in identically appearing gelatin capsules.
(§2) Participants received three 2-hour preparatory psychotherapy sessions in order to review the purpose and intention of participation in the study, treatment goals, and structure of the treatment sessions. Medications were administered in 8-hour treatment sessions which included a discussion of the participant's subjective experience with the treatment team to consolidate the memory of the experience and to begin the process of post-integrative psychotherapy. Participants also received three 2-hour post-medication integration sessions (repeated after the second dosing session) to further consolidate the memory of the experience and to continue the process of psychological integration. All psychotherapy treatment sessions were delivered by a dyadic therapy team trained in a blend of psychotherapies with an evidence base to support their use in cancer patients (drawing upon principles of palliative care therapy, existential psychotherapy, cognitive-behavioural therapy, psychoanalysis therapy, and transpersonal psychology) and were taught about the safety and clinical pharmacology of psilocybin. Each therapy dyad underwent six confidential one-to-one sessions to build their alliance and exchange ideas about psychedelic therapy. The trial employed a crossover design at seven weeks following the first drug administration, with an outcome assessment at 6.5 months (26 weeks) following the second drug administration (i.e. after the crossover).
(§3) Two long-term follow ups (LTFUs) were carried out to assess the continued effect of psilocybin.
(§4) Primary outcomes (suicidal ideation and desire for hastened death) were measured according to the following methods: • Beck Depression Inventory-II (BDI-II) (Beck et al., 1988)— this is a widely used self-report measure to assess depression. The BDI-II comprises 21 questions related to depressive symptoms experienced over the previous two weeks, and is rated on a […] (total score ranges from 0-63). Scores greater than 12 correlate with clinical depression. […] Item #9 on the BDI queries suicidal ideation with the following options: 0=I don't have any thoughts of killing myself; 1=I have thoughts of killing myself, but I would not carry them out; 2=I would like to kill myself; 3=I would kill myself if I had the chance. The BDI-II was assessed at baseline, 1-day prior to dose-1, 8-hours after dose-1, 1-day after dose-1, 2-weeks after dose-1, 6-weeks after dose-1, 7-weeks after dose-1 (corresponding to 1-day prior to dose-2), 1-day after dose-2, 6-weeks after dose-2, 26-weeks after dose-2, and at the 3.2 year and 4.5 year LTFU assessments. • The Brief Symptom Inventory (BSI) (Derogatis 1993) is a 53-item self-report questionnaire that assesses a range of psychiatric symptoms, generating 9 domains (depression, anxiety, phobic anxiety, somatization, obsession-compulsion, interpersonal sensitivity, hostility, paranoid ideation, psychoticism) and a global severity index.

The subject of assay [2] is cancer patients. Description: Composite desire for hastened death (DHD) score (5 loss-of-meaning items of the Demoralization Scale), crossover trial with psychotherapy. Particulars: for DHD within-subjects reduction relative to baseline: combined groups. The procedure: as §1, §2, §3, §4
Assay [3] concerns cancer patients. Description: Primary outcomes DHD and SI taken together: within-subject effect sizes across measures and time points. The procedure:
as §1
Participants received three 2-hour preparatory psychotherapy sessions in order to review the purpose and intention of participation in the study, treatment goals, and structure of the treatment sessions. Medications were administered in 8-hour treatment sessions which included a discussion of the participant's subjective experience with the treatment team to consolidate the memory of the experience and to begin the process of post-integrative psychotherapy. […]
Primary outcomes (suicidal ideation and desire for hastened death) were measured according to the following methods: • Beck Depression Inventory-II (BDI-II) (Beck et al., 1988)— this is a widely used self-report measure to assess depression. […] It is measured on a Likert scale: 0=Not at all; 1=Little, 2=Moderately; 3=Quite a bit; 4=Extremely. […]

The mark [4] stands for this setting: after crossover, both dose-sequence groups combined, 6.5-month follow-up, p<0.001.

`O=C(O)c1cccnc1` [niacin]: the “Composite suicidality/SI score, main effect of time within group” value in assay [1] (niacin-1st group (250 mg), prior to the crossover, p=0.065, n=5) was “no significant main effect of time”. The “Composite DHD score, main effect of time within group” value in assay [2] (niacin-1st group (250 mg), prior to the crossover, p=0.079, n=5) was “no significant main effect of time”.
`CN(C)CCc1c[nH]c2cccc(OP(=O)(O)O)c12` [psilocybin, [3-(2-dimethylaminoethyl)-1H-indol-4-yl] dihydrogen phosphate]: the “Within-subjects effect sizes across DHD and SI and time points, Cohen's d range” value in assay [3] (after crossover, combined groups, 6.5 months to 4.5 years) is listed as 1.51-2.56. The “Within-subject effect sizes across DHD and SI and time points, Cohen's d range” value in assay [3] (psilocybin-1st group, pre-crossover, statistically significant reductions) was 1.20-3.50. The “Composite SI within-subjects change relative to baseline” value in assay [1] (setting [4]) was “statistically significant within-subjects reductions”. For the same compound, in assay [1] (prior to the crossover, psilocybin 0.3 mg/kg, interaction p=0.065, group p=0.614), the “Composite SI, between-group comparison psilocybin-1st vs niacin-1st” value is listed as “no significant differences between the two groups”. The “Composite SI within-subject effect size relative to baseline, Cohen's d” value in assay [1] (2-weeks post-dose 1, p<0.001) was found to be 2.40; in assay [1] (7-weeks post-dose 1, p<0.001), 3.50; in assay [1] (8-hours post-dose 1, p<0.001), 2.40. The “DHD mean score relative to baseline, within psilocybin-1st group” value in assay [2] (2-weeks post dose-1, pre-crossover, p=0.005, n=6) was “differed significantly”. For the same compound, in assay [2] (2-weeks post dose-1, pre-crossover, psilocybin 0.3 mg/kg single dose, n=6 vs n=5), the “DHD between-group difference, psilocybin-1st vs niacin-1st, Cohen's d” value is given as 1.32. Besides, the “DHD within-subjects change relative to baseline” value in assay [2] (setting [4]) was “statistically significant within-subjects reductions”. Moreover, the “DHD within-subjects reduction relative to baseline” value in assay [2] (after crossover, 3.2-year follow-up, p<0.001) was “remained significant”; in assay [2] (after crossover, 4.5-year follow-up, p<0.001), “remained significant”.

The values above are taken from patent US20240075009A1, “TREATMENT OF S[…] PSILOCIN OR PSILOCYBIN” (NEW YORK UNIVERSITY, priority 2021, published 2024).
